Data on two compounds can be found in patent publication US11584749B2, “Phosphor-tetrazine compound and use thereof” (Spark Biopharma, Inc., priority 2018, dated 2023).

The subject of test [1] is mitochondria (HeLa cells). Kind of test: Fluorescence imaging of mitochondria in living HeLa cells pre-treated with TPP-TCO. The class given is cell-based, human. The settings on record: for position of fluorescence signal versus MitoTracker Deep Red: HeLa cells, TPP-TCO and compound; for fluorescence mitochondria image: living HeLa cells treated with TPP-TCO for 1 hour; for fluorescence mitochondria image / fluorescence expression intensity in the extracellular region: then compound; for fluorescence expression intensity in the extracellular region: living HeLa cells treated with TPP-TCO. On the procedure:
(§1) The fluorescence imaging test was performed using a DeltaVision Elite imaging system of GE Healthcare, and an Olympus IX-71 microscope was used.
In order to confirm the fluorescence imaging of mitochondria in living cells, it was tested by the following method.
HeLa cells were incubated for 1 hour in the presence or absence of triphenylphosphonium (TPP)-TCO, and then HeLa cells were washed and treated with the compound of Example 5 or Example 6.
In addition, in order to confirm the selectivity of TPP-TCO and Example 5, and TPP-TCO and Example 6 for mitochondria, HeLa cells were treated with MitoTracker Deep Red, a mitochondria coloring dye, As a result, it was observed that the position of the fluorescence signal of MitoTracker Deep Red was consistent with that of Example 5 or Example 6.

The subject of test [2] is microtubule (HeLa human cervical cancer cells). Kind of test: Fluorescence bio-imaging of microtubule in fixed HeLa cells pre-treated with Docetaxel-TCO conjugate. The class given is cell-based. The settings on record: for fluorescence signal on addition to cells: fixed HeLa cells cultured with Dox-TCO for 1 hour, washed with PBS; for specificity of staining, immunofluorescence with α-tubulin antibody: fixed HeLa cells, Dox-TCO. How it is done: as §1
Docetaxel-TCO conjugate (Dox-TCO) was used for fluorescence bio-imaging of microtubule. HeLa human cervical cancer cells were fixed, and cultured with Dox-TCO for 1 hour, and then washed with PBS.

SMILES strings stand for the structures.

Consider `CCN(CC)c1ccc(-c2c3c(n4ccc(-c5nnc(C)nn5)cc24)C(=O)N(CCCN2CCN(C)CC2)C3)cc1` [Example 6, 9-(4-(diethylamino)phenyl)-7-(6-methyl-1,2,4,5-tetrazin-3-yl)-2-(3-(4-methylpiperazin-1-yl)propyl)-1,2-dihydro-3H-pyrrolo[3,4-b]indolizin-3-one], for which, in test [1], the “position of fluorescence signal versus MitoTracker Deep Red” value was “consistent”, the fluorescence mitochondria image result is “a clear fluorescence mitochondria image was observed” and the “fluorescence expression intensity in the extracellular region” value was found to be 0. For the same compound, in test [2], the “fluorescence signal on addition to cells” value is reported as “a bright fluorescence signal was generated” and the “specificity of staining, immunofluorescence with α-tubulin antibody” value was “microtubule specific staining”.
For `Cc1nnc(-c2ccn3c4c(c(-c5ccccc5)c3c2)CN(CCCN2CCN(CCC(=O)O)CC2)C4=O)nn1` [Example 5, 3-(4-(3-(7-(6-methyl-1,2,4,5-tetrazin-3-yl)-3-oxo-9-phenyl-1,3-dihydro-2H-pyrrolo[3,4-b]indolizin-2-yl)propyl)piperazin-1-yl)propanoic acid] the same measures were “consistent”, “a clear fluorescence mitochondria image was observed”, 0, “a bright fluorescence signal was generated” and “microtubule specific staining”.
